Measurements taken from the NIST ThermoML archive (doi:10.1016/j.jct.2014.02.012).
Numbers after ± are expanded uncertainties.

Assays:
[1] = 100 kPa, Liquid mixture 1, Wilhelmy plate method
[2] = 298.15 K; for surface tension liquid-gas: Wilhelmy plate method; for viscosity / mass density: 101.33 kPa, Liquid; for viscosity: Capillary tube (Ostwald / Ubbelohde) method; for mass density: Vibrating tube method

SMILES	surface tension liquid-gas [2] [mN/m]	viscosity [2] [mPa·s]	interfacial tension ([1]; 298.15 K) [mN/m]	interfacial tension ([1]; 348.15 K) [mN/m]	mass density [2] [kg/m3]
CCCCCCCCCCCC [dodecane] + O			52.2 ± 0.3	49.6 ± 0.3	
O [water]	72 ± 0.2	0.904 ± 0.019			
CCCCCCCCCCCC [dodecane]	24.9 ± 0.2	1.356 ± 0.029			745.27 ± 0.24
CCCCCCCCCCCCCC[P+](CCCCCC)(CCCCCC)CCCCCC.O=S(=O)([N-]S(=O)(=O)C(F)(F)F)C(F)(F)F	30.9 ± 0.3	311.4 ± 11			1065.5 ± 0.28
CCCCCCCCCCCCCC[P+](CCCCCC)(CCCCCC)CCCCCC.O=S(=O)([N-]S(=O)(=O)C(F)(F)F)C(F)(F)F + CCCCCCCCCCCC			0.9 ± 0.2	0.6 ± 0.2	
CCCCCCCCCCCCCC[P+](CCCCCC)(CCCCCC)CCCCCC.O=S(=O)([N-]S(=O)(=O)C(F)(F)F)C(F)(F)F + O			27.1 ± 0.2	25.6 ± 0.2	
